Results: PMC4317013 (The Journal of Biological Chemistry, 2014)

How the values were obtained:
[1] = system: Jurkat T cells; experiment: Internalization of FITC-labeled peptides by Jurkat T cells, FACS; details: 5 μM, 1 h, 37 °C, full medium with 10% FBS, washed, fixed with 4% paraformaldehyde, FACSCalibur, compared with untreated cells, Fig. 5A
Method: For the internalization experiment, cells were seeded at 1 × 10^6 cells/ml with 8 ml of full medium into 75-cm^2 flasks and treated with respective 200 nM proteins for 2 h or 5 μM peptides for 1 h.
Human A+-helix peptide ([…]; corresponding to the cleaved N-terminal peptide of hPCI), mouse A+-helix peptide ([…]; corresponding to the cleaved N-terminal peptide of mPCI), and TAT peptide ([…]) ([42]) were synthesized and labeled with FITC (GenScript, Piscataway, NJ). […] Fluorescence-activated cell sorting (FACS) analysis was performed with a FACSCalibur flow cytometer (BD Biosciences). Further data analysis was done with Flowing Software ([43]). For confocal microscopy, the fixed cells were suspended with Vectashield mounting medium containing […] DAPI (Vector Laboratories, Burlingame, CA) and transferred onto slides. Confocal images were taken by a Zeiss LSM-510 Meta confocal microscope system (Zeiss, Jena, Germany). Zeiss LSM Image Browser software was applied for further analysis of images.

[2] = media from untreated U937 cells (RMPI 1640 medium); details: 37 °C, up to 4 h
[3] = system: testisin; experiment: 30 nM testisin in testisin buffer (50 mM Tris, 150 mM NaCl, 10 mM CaCl2, pH 7.5); details: 37 °C, up to 120 min
[4] = system: enteropeptidase; experiment: 30 nM enteropeptidase; details: 37 °C, up to 120 min
[5] = system: urokinase; experiment: 30 nM urokinase; details: 37 °C, up to 120 min

Substance | cellular fluorescence signal (FACS) [1] | not cleaved [2] | cleaved bond [3] | not cleaved [4] | not cleaved [5]
Fluorescein Isothiocyanate [free FITC] | small shift |  |  |  | 
RRHSHSKKKKAKESSVGAVGPPSSKDFA... |  | did not affect the molecular weight of mPCI upon incubation for 1 and 4 h | Ala18-Val19 | still recognized by anti-penta-His IgG after 2-h incubation | still recognized by anti-penta-His IgG after 2-h incubation
